As usually defined, the IC50 is the concentration at which inhibition is half-maximal.

Our source for the IC50 values is paper PMC8619001, “Discovery of New Ginsenol-Like Compounds with High Antiviral Activity” (Molecules, 2021).

This assay has as its system A/Vladivostok/2/2009 (H1N1). The experiment in a line: microbe, parasite or virus in culture. Type of assay: cell-based. The settings on record: Influenza A virus, H1N1, MDCK, 72 h, read-out: IC50 H1N1.

Take `CC(=O)NC12CC(C)(C)C3CCC1(C)CCCC32C` [Compound 1a, (1S,3aR,4R,7aS)-N-(2,2,4,7a-tetramethyloctahydro-1,4-etanoinden-3a-yl)-acetamide]: the IC50 stood at 380 ± 51 nM.
